Measurements reported in patent publication US7972815B2, “Method of producing sugar chain using human G4 polypeptide” (Kyowa Hakko Kirin Co., Ltd., priority 1999, dated 2011).
Like-named read-outs stand apart in the source and are kept apart here.

Assays:
[1] = biological target: T1, β1,3-N-acetylglucosaminyl transferase (G3) (Homo sapiens, UniProt Q9NY97); test: Substrate specificity of G3 with pyridylaminated oligosaccharides; type: biochemical; conditions: pyridylaminated substrate, 37° C., 2 hours, activity on LNnT defined as 100%
T1 construct: made in house; host or cells: Sf21 insect cells infected with recombinant baculovirus from pVL1393-F2G3
T1 sequence (Q9NY97 31-397): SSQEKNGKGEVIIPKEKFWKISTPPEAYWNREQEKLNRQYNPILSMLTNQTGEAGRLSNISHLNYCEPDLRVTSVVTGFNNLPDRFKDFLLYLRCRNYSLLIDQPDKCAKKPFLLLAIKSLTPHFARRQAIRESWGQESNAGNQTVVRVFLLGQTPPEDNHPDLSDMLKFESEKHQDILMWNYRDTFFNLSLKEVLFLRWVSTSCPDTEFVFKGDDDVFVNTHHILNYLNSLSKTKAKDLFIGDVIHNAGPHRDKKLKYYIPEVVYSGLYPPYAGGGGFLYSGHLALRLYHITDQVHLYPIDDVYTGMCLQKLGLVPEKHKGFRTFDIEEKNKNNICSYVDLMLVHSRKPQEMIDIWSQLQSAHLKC
Description: (§1) The method shown in Example 8 was used as the activity measuring method. Specifically, after the reaction at 37° C. for 14.5 hours in 30 μl of an assay solution [200 mmol/l of MOPS (pH 7.5), 20 mmol/l of UDP-GlcNAc (SIGMA), 20 mmol/l of MnCl2, 50 μmol/l of pyridylaminated sugar chain substrate and 15 μl of the above eluate], products were detected by HPLC. As substrates, LNnT, lacto-N-tetraose (Galβ1-3GlcNAcβ1-3Galβ1-4Glc, hereinafter referred to as “LNT”), lacto-N-fucopentaose II (Galβ1-3(Fucα1-4)GlcNAcβ1-3Galβ1-4Glc, hereinafter referred to as “LNFP-II”), lacto-N-fucopentaose III (Galβ1-4(Fucα1-3)GlcNAcβ1-3Galβ1-4Glc, hereinafter referred to as “LNFP-III”), lacto-N-fucopentaose V (Galβ1-3GlcNAcβ1-3Galβ1-4(Fucα1-3)Glc, hereinafter referred to as “LNFP-V”) and lacto-N-difucohexaose II (Galβ1-3(Fucα1-4)GlcNAcβ1-3Galβ1-4(Fucα1-3)Glc, hereinafter referred to as “LNDFH-II”) (all manufactured by Oxford Glycosystems) were used after fluorescently labeling them with aminopyridine. Fluorescence labeling of these substrates were carried out in accordance with the usual method [Agric. Biol. Chem., 54, 2169 (1990)].
(§2) For each substrate, the reaction was carried using the assay solution with or without UDP-GlcNAc (sugar donor), and then HPLC was carried out and peaks appeared only in the assay solution containing UDP-GlcNAc were defined as products.
(§3) The assay solution after completion of the reaction was treated at 100° C. for 5 minutes and then centrifuged at 10,000×g for 5 minutes, and a portion (5 μl) of the thus obtained supernatant was applied to HPLC.
(§4) The HPLC was carried out by using TSK-gel ODS-80Ts column (4.6×300 mm; Tosoh); 0.02 mol/l ammonium acetate buffer (pH 4.0) was used as the eluate at an elution temperature of 50° C. and at a flow rate of 0.5 ml/min.
(§5) Products were detected by using a fluorescence spectrum photometer FP-920 (JASCO Corporation) (excitation wavelength 320 nm, radiation wavelength 400 nm).
Substrate specificity of a β1,3-N-acetylglucosaminyl transferase (G3) was examined using the FLAG peptide-fused G3 polypeptide purified in Example 14.
Substrate specificity of the FLAG peptide-fused G3 polypeptide was examined by the method shown in Example 11(1). The reaction was carried out at 37° C. for 2 hours.

[2] = biological target: T2, β1,3-N-acetylglucosaminyl transferase (G7) (Homo sapiens, UniProt Q9C0J1); test: Substrate specificity of G7 with pyridylaminated oligosaccharides; type: biochemical; conditions: pyridylaminated substrate, 37° C., 16 hours, activity for LNnT defined as 100%
T2 construct: made in house; host or cells: Sf21 insect cells infected with recombinant baculovirus from pVL1393-F2G7
T2 sequence (Q9C0J1 56-378): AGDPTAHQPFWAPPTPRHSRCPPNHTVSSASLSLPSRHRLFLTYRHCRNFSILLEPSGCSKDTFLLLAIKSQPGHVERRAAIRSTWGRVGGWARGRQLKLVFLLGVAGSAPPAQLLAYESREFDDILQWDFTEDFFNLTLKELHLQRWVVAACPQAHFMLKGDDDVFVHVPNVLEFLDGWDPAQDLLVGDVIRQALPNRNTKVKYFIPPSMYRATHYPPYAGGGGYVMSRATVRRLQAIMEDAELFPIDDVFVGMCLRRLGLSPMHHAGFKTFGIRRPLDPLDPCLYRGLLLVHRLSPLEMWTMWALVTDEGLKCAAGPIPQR
Description: as §1, §2, §3, §4, §5
Examination of the substrate specificity of a β1,3-N-acetylglucosaminyl transferase (G7) was carried out using the FLAG peptide-fused G7 polypeptide purified in Example 17.
Substrate specificity of the FLAG peptide-fused G7 polypeptide was examined by the method shown in Example 11(1). The reaction was carried out at 37° C. for 16 hours.

[3] = biological target: T3, β1,3-N-acetylglucosaminyl transferase (G4) (Homo sapiens, UniProt Q9Y2A9, R328H); test: Substrate specificity of G4 with pyridylaminated oligosaccharides; type: biochemical; conditions: pyridylaminated substrate 50 μmol/l, 37° C., 14.5 hours, activity on LNnT defined as 100%
T3 construct: made in house; host or cells: Sf21 insect cells infected with recombinant baculovirus from pVL1393-F2G4
T3 sequence (Q9Y2A9 38-372 R328H): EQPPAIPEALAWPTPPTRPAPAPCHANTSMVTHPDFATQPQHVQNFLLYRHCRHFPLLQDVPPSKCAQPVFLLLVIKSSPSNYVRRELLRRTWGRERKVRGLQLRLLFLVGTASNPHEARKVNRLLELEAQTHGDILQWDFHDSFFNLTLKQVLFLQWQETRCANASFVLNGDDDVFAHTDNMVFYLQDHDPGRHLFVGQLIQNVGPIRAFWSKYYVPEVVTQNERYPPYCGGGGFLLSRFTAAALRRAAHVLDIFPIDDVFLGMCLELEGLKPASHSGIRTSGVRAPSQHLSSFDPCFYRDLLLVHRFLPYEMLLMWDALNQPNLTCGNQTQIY
Description: Examination on the substrate specificity of a β1,3-N-acetylglucosaminyl transferase (G4) was carried out by using the FLAG peptide-fused G4 polypeptide produced as a secreted form in Example 10.
as §1, §2, §3, §4, §5

β3GnT = biological target: T4, β3GnT (Homo sapiens, UniProt Q9NY97); conditions: reported values, Proc. Natl. Acad. Sci. USA, 96, 406 (1999), cited from earlier work
T4 sequence (Q9NY97 1-397): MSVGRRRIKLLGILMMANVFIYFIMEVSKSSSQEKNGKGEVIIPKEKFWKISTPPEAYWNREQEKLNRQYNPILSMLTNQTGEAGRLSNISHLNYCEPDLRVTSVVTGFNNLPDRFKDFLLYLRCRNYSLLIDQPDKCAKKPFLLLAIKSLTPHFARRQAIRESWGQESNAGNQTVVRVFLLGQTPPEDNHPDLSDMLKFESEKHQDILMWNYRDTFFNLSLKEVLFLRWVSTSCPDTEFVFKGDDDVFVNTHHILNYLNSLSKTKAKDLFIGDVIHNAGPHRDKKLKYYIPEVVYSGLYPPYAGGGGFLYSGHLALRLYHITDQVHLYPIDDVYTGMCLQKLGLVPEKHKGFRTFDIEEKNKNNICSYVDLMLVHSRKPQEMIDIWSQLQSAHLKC

[4] = biological target: T2, β1,3-N-acetylglucosaminyl transferase (G7); test: Substrate specificity of G7 with unlabeled oligosaccharides; type: biochemical; conditions: unlabeled substrate, 37° C., 15.5 hours, activity for LNnT defined as 100%
Description: (§6) The reaction using the glycosyltransferase was carried out as follows. The reaction was carried out at 37° C. for 16 hours in 40 μl of an assay solution [50 mmol/l MOPS (pH 7.5), 5 mmol/l UDP-GlcNAc (SIGMA), 5 mmol/l MnCl2, […] and 10 μl of the above eluate]. Next, the reaction solution was treated at 100° C. for 5 minutes and then centrifuged at 10,000×g for 20 minutes to obtain the supernatant, and a portion thereof was analyzed using HPAE/PAD (High Performance Anion Pulsed Amperometoric Detection; manufactured by DIONEX). The specific method was carried out in the usual way [Anal. Biochem., 189, 151 (1990), J. Biol. Chem., 273, 433 (1998)].
(§7) As substrates, the following unlabeled oligosaccharides were used: lactose (Galβ1-4Glc), N-acetyllactosamine (Galβ1-4GlcNAc, hereinafter referred to as “LacNAc” in some cases), LNnT, LNT and lacto-N-neohexaose (Galβ1-4GlcNACβ1-3Galβ1-4GlcNAcβ1-3Galβ1-4Glc, hereinafter referred to as “LNnH”).
as §2
(§8) In identifying the product, coincidence of its elution time with that of a standard sugar chain was used as the index. As the standard sugar chains, GlcNAcβ1-3Galβ1-4Glc, GlcNAcβ1-3Galβ1-4GlcNAc and GlcNAcβ1-3Galβ1-4GlcNAcβ1-3Galβ1-4Glc were used.
Substrate specificity of the FLAG peptide-fused G7 polypeptide was examined using the method shown in Example 11(2). The enzyme reaction was carried out at 37° C. for 15.5 hours.

[5] = biological target: T1, β1,3-N-acetylglucosaminyl transferase (G3); test: Substrate specificity of G3 with unlabeled oligosaccharides; type: biochemical; conditions: unlabeled substrate, 37° C., 2 hours, activity for LNnT defined as 100%
Description: as §6, §7, §2, §8
Substrate specificity of the FLAG peptide-fused G3 polypeptide was examined by the method shown in Example 11(2). The enzyme reaction was carried out at 37° C. for 2 hours.

[6] = biological target: T3, β1,3-N-acetylglucosaminyl transferase (G4); test: Substrate specificity of G4 with unlabeled oligosaccharides (HPAE/PAD); type: biochemical; conditions: unlabeled substrate, 37° C., 16 hours, activity on LNnT defined as 100%
Description: as §6, §7, §2, §8

With CC(=O)N[C@H]1[C@H](O[C@H]2[C@@H](O)[C@@H](CO)O[C@@H](O[C@@H]([C@H](O[C@@H]3O[C@@H](C)[C@@H](O)[C@@H](O)[C@@H]3O)[C@@H](O)C=O)[C@H](O)CO)[C@@H]2O)O[C@H](CO)[C@@H](O[C@@H]2O[C@@H](C)[C@@H](O)[C@@H](O)[C@@H]2O)[C@@H]1O[C@@H]1O[C@H](CO)[C@H](O)[C@H](O)[C@H]1O [LNDFH-II, lacto-N-difucohexaose II] as the compound, how does the “Relative activity (%)” value [1] read?
Its value is 0%.

And the “Relative activity (%)” value [2]?
Its value is 0%.

And the “Relative activity (%)” value [3]?
The value was 0%.

Which “Relative activity (%)” value [1] does the source give for CC(=O)N[C@H]1[C@H](O[C@H]2[C@@H](O)[C@@H](CO)O[C@@H](O[C@@H]([C@H](O)[C@@H](O)C=O)[C@H](O)CO)[C@@H]2O)O[C@H](CO)[C@@H](O[C@@H]2O[C@@H](C)[C@@H](O)[C@@H](O)[C@@H]2O)[C@@H]1O[C@@H]1O[C@H](CO)[C@H](O)[C@H](O)[C@H]1O [LNFP-II, lacto-N-fucopentaose II] here?
The value was 0%.

What about the “Relative activity (%)” value [2] of the same compound?
Its value is 0%.

And the “Relative activity (%)” value [3]?
Its value is 0%.

What does the source list for CC(=O)N[C@H]1C(O)O[C@H](CO)[C@@H](O[C@@H]2O[C@H](CO)[C@H](O)[C@H](O)[C@H]2O)[C@@H]1O (stereo partly shown) [LacNAc, N-acetyllactosamine]?
Relative activity (%) β3GnT (β3GnT; Table 4): 95.5%; Relative activity (%) β3GnT (β3GnT; Table 6): 95.5%; Relative activity (%) G7 [4]: 8.5%; Relative activity (%) G3 [5]: 21%; Relative activity (%) [6]: 0%

Which results are given for OC[C@H]1O[C@@H](O[C@H]2[C@H](O)[C@@H](O)C(O)O[C@@H]2CO)[C@H](O)[C@@H](O)[C@H]1O (stereo partly shown) [Lactose, lactose]?
Relative activity (%) β3GnT (β3GnT; Table 4): 67.1%; Relative activity (%) β3GnT (β3GnT; Table 6): 67.1%; Relative activity (%) G7 [4]: 32.6%; Relative activity (%) G3 [5]: 128%; Relative activity (%) [6]: 235%

Which “Relative activity (%)” value [1] does the source give for lacto-N-fucopentaose III [LNFP-III] here?
Its value is 0%.

And the “Relative activity (%)” value [2]?
The value was 7.4%.

And the “Relative activity (%)” value [3]?
The value was 4.7%.

Which “Relative activity (%)” value [1] does the source give for lacto-N-fucopentaose V [LNFP-V] here?
Its value is 30.8%.

And the “Relative activity (%)” value [2]?
The value was 8.1%.

And the “Relative activity (%)” value [3]?
Its value is 65.1%.

With lacto-N-neohexaose [LNnH] as the compound, how does the “Relative activity (%) G7” value [4] read?
The value was 0.05%.

And the “Relative activity (%) G3” value [5]?
The value was 132%.

What about the “Relative activity (%)” value [6] of the same compound?
The value was 45%.
